Results: patent publication US8252557B2, “Peptide-containing culture medium for culturing animal cell” (Chugai Seiyaku Kabushiki Kaisha, priority 2008, dated 2012)

System: humanized IgG (anti-glypican-3 antibody)-producing CHO cell line
Experiment: Antibody-producing fed-batch culture, CHO cell line transfected with antibody gene
Type: cell-based
Conditions: for concentration of lactic acid during culture: compared to fed-batch medium not containing the peptide; for antibody concentration after the 14-day culture: fed day 3-14 at 1.0 g/hr per L, control about 1.6 g/L; for antibody concentration higher than control: peptide-containing fed-batch medium vs fed-batch medium without peptide, day 14
Description: (§1) The initial culture medium was placed in a jar-type cell culture system, and then the CHO cell line was added thereto into a concentration of 2×10^5 cells/mL and was cultured under the conditions of 37° C. and 10% CO2. During the culture period of 14 days, a pH level of not lower than 7.0 and a dissolved oxygen level of 40% were automatically maintained. The fed-batch medium was continuously fed from the 3rd day to the 14th day of the culture at a constant flow rate (1.0 g/hr for 1 L of the initial culture medium). The culture medium was sampled at the start of the culture and on the 3rd, 5th, 7th, 10th, 12th, and 14th days. The number of viable cells in each sampled culture solution was counted by trypan blue staining. The antibody concentration in the centrifuged supernatant of each culture solution was measured by affinity chromatography using protein A, and the concentration of lactic acid was measured by an immobilized enzyme process.
as §1, with “concentration” for “number”, “the produced” for “viable cells in each sampled culture solution was counted by trypan blue staining. The”, “antibody” for “antibody concentration”, “the” for “the centrifuged”, “sample” for “solution”, “A; the survival rate was measured by trypan blue staining;” for “A,”

[1] = fed-batch medium containing 50 mM of the peptide

Substance: Cys-Tyr [dipeptide]
- concentration of lactic acid during culture: relatively low levels from the 5th day to the 10th day
- antibody concentration after the 14-day culture [1]: about 2.0 g/L
- antibody concentration higher than control: about 25%

Substance: Cys-Tyr-Ser [tripeptide]
- concentration of lactic acid during culture: relatively low levels from the 3rd day to the 10th day
- antibody concentration after the 14-day culture (fed-batch medium containing 25 mM of the tripeptide): about 2.1 g/L
- antibody concentration after the 14-day culture [1]: about 2.1 g/L
- antibody concentration higher than control: about 30%
